The text below walks through data of PMC7180939, “Antiplasmodial Activity of p-Substituted Benzyl Thiazinoquinone Derivatives and Their Potential against Parasitic Infections” (Molecules, 2020).

Read-outs that look alike come from different tables or passages of the source.

Data set [1] concerns chloroquine-resistant (W2) strain of P. falciparum. Put plainly: P. falciparum drug susceptibility assay (pLDH), W2 strain. Format: cell-based. The following applies: Plasmodium falciparum, read-out: W2 IC50. The procedure: (§1) All reagents were from Sigma Aldrich, Milan, Italy unless indicated otherwise. As reported in the literature, the chloroquine-sensitive (D10) and chloroquine-resistant (W2) strains of P. falciparum were maintained in vitro at 5% hematocrit medium (constituted of human type Apositive red blood cells) in RPMI 1640 (EuroClone, Celbio, Italy) with the addition of 1% AlbuMax (Invitrogen, Milan, Italy), 0.01% hypoxanthine, […], and […]. The resulting cultures were incubated at 37 °C in a mixture of standard gas with the following composition: 1% O2, 5% CO2, and 94% N2. […] Drugs were placed in 96 well flat-bottom microplates and a series of dilutions performed. Asynchronous cultures (parasitemia of 1–1.5%; 1% final hematocrit) were aliquoted into the plates and incubated for 72 h at 37 °C. The cultures were washed with PBS before the chemosensitivity assay while the parasite growth was determined spectrophotometrically (OD650) by measuring the parasite lactate dehydrogenase (pLDH) activity. These measurements were made according to the modified version of Makler’s method both in control and drug-tested cultures. Antiplasmodial activity is expressed as 50% inhibitory concentrations (IC50), which means the dose of compounds necessary to inhibit cell growth by 50%. Each IC50 value is the mean standard deviation of at least three separate experiments performed in duplicate.

The subject of data set [2] is chloroquine-sensitive (D10) strain of P. falciparum. The data set is described as follows: P. falciparum drug susceptibility assay (pLDH), D10 strain. Format: cell-based. The following applies: Plasmodium falciparum, read-out: D10 IC50. The procedure:
as §1

The test system of data set [3] is human microvascular endothelial cells (HMEC-1). The data set is described as follows: Cytotoxicity assay on HMEC-1 cell line. In kind it is cell-based. The following applies: cytotoxicity on HMEC-1 cell line.
The next data set deals with P. falciparum. Further details: method as in PMID 30640072. The following applies: D10 and W2 strains, earlier work; cited from earlier work.
In a further data set the test system is S. mansoni. Details: method as in PMID 31718145. To be noted: schistosomula, adult worm pairs, juvenile parasites, eggs; cited from earlier work.
Details of data set [4]: method as in PMID 31718145. The following applies: cited from earlier work.
For data set [5], the system named is embryonic murine fibroblasts (NIH-3T3 cell line). Details: method as in PMID 31718145. The following applies: cytotoxicity on NIH-3T3 cell line; cited from earlier work.
Where [6] appears, read: CQ-resistant W2 strain, pLDH assay, 72 h, mean ± SD of three experiments in duplicate.
The mark [7] stands for this setting: CQ-sensitive D10 strain, pLDH assay, 72 h, mean ± SD of three experiments in duplicate.

For the compound `COC1=C(Cc2ccc(Cl)cc2)C(=O)C2=C(NCCS2(=O)=O)C1=O` [Compound 24], the IC50 – broadly, the concentration that inhibits the measured activity by half – in data set [1] (setting [6]) amounted to 1900 ± 1050 nM; in data set [2] (setting [7]), 1630 ± 350 nM; in data set [3], 8.51 ± 0.76 µM.
`COC1=C(Cc2ccccc2)C(=O)C=CC1=O` [Compound 23]: the “antiplasmodial activity (in words)” value in the data set on P. falciparum was “absence of activity”. Besides, the “activity against S. mansoni (in words)” value in the data set with S. mansoni was “inactive”.
Turning to `COC1=C(Cc2ccc(OC)cc2)C(=O)C2=C(NCCS2(=O)=O)C1=O` [Compound 26], the IC50 in data set [1] (setting [6]) is 1220 ± 240 nM; in data set [2] (setting [7]) it was 1210 ± 200 nM; in data set [3], 17.9 ± 1.1 µM; in data set [5], greater than 100 µM. Further, the cLogD in data set [4] was 0.33.
Turning to `COC1=C(Cc2ccc(C(F)(F)F)cc2)C(=O)C2=C(NCCS2(=O)=O)C1=O` [Compound 25], the IC50 in data set [1] (setting [6]) amounted to 5020 ± 1810 nM; in data set [2] (setting [7]), 5060 ± 1680 nM; in data set [3] it was 20.4 ± 1.6 µM.
For `COC1=C(Cc2ccc(OC(F)(F)F)cc2)C(=O)C2=C(NCCS2(=O)=O)C1=O` [Compound 27], the IC50 in data set [1] (setting [6]) came out at 810 ± 190 nM; in data set [2] (setting [7]), 1120 ± 400 nM; in data set [3] it was 3.59 ± 0.72 µM. Moreover, the cLogD in data set [4] was 1.37.
Turning to `CC[C@@]1(O)C(=O)OCc2c1cc1n(c2=O)Cc2cc3ccccc3nc2-1` [Camptothecin, reference compound], in data set [3], inhibition was half-maximal at 0.018 µM (IC50).
For the compound `COC1=C(Cc2ccccc2)C(=O)C2=C(NCCS2(=O)=O)C1=O` [Compound 22], the “antiplasmodial activity (in words)” value in the data set with P. falciparum is “active in the range of low-micromolar concentrations”. Moreover, the IC50 was 700 ± 220 nM in data set [1] (setting [6]), 600 ± 210 nM in data set [2] (setting [7]), 17.6 ± 1.4 µM in data set [3] and 88.6 ± 7.7 µM in data set [5].
With `CCN(CC)CCCC(C)Nc1ccnc2cc(Cl)ccc12` (stereo not shown) [CQ, chloroquine, reference compound], the IC50 in data set [1] (W2, 72 h) amounted to 540 nM; in data set [2] (D10, 72 h) it was 40 nM.
